The test system of the assay is virus-specific CD8 T cells. Also on record: species or system mice. To be noted: mouse, in vivo.

Take `Nc1ncn([C@H]2C[C@H](O)[C@@H](CO)O2)c(=O)n1` [DAC, 5-aza-2′-deoxycytidine]: the “Ki67+ virus-specific CD8 T cells” value is “significant increase”; the T cell expansion entry was “did not observe an enhancement”; the “expansion of virus-specific T cells in spleen, lungs and liver” value is on record as “enhanced expansion”; the “quantity of gp33-specific CD8 T cells in the peripheral blood” value is “striking increase”.
